# Legend:
# APP/PS1 model group = assay: In vivo electrophysiology and LTP analysis (hippocampus slice); set-up: species or system mice; conditions: hippocampus slice CA1, after pairing stimuli, treated APP/PS1 model group
# Protocol: A hippocampus slice was prepared from adult mice to examine the CA1 circuit from the cross-sectional schaffer collateral (SC) input in the hippocampus slice ([…] thickness). Briefly, after anesthetizing the mice with isoflurane, the brains were quickly cooled by transcardiac perfusion with ice-cold cross-cerebrospinal fluid (CSF). After the brain was removed, the brains were stored in ice-cold sucrose-artificial CSF. A coronal section was cultured in artificial CSF at a temperature of 35° C. for 30 minutes, and cultured in artificial CSF at room temperature (23° C. to 25° C.) for 1 to 4 hours before being transferred to the recording chamber. […]
# LTP experiments were performed at 27° C. to 29° C. […] Stimulation was applied to the shaper-side branch (SC) pathway using a concentrated bipolar electrode located at […] from the soma of the recorded cells. […] In the LTP experiment, baseline EPSCs were measured for 3 min before applying the pairing stimuli (2 Hz, 2-minute stimulation, and post-synaptic depolarization to 0 mV). […]
# APP/PS1 model mice = assay: Western blot analysis of cortex and hippocampus of APP/PS1 model mice; assay type: in vivo
# Protocol: Male C57BL/6J wild type mice and double transgenic B6.Cg-Tg (APPswe, PSENdE9) 85Dbo Mmjax (APP/PS1) AD-model mice were obtained from Jackson Laboratories (Bar Harbor, Me., USA). The brains of the double transfected mice express Swedish mutation-containing chimeric mouse-human amyloid precursor protein (Mo/HuAPP695swe) and mutant human presenilin 1 protein (PS1-dE9). The mice were fed with an unlimited supply of food and water at an animal breeding ground of a university at a temperature of 23° C., at the relative humidity of 60±10% and in the black and light cycle of 12 h/12 h. […] The maintenance and treatment for mice were performed according to the guidelines of the Animal Ethics Committee (IACUC) issued by Department of Biology, Division of Applied Life Science of Gyeongsang National University in Korea. Experiments according to the present disclosure were conducted according to the guidelines approved by the guidelines of the Animal Ethics Committee (IACUC) issued by Department of Biology, Division of Applied Life Science of Gyeongsang National University in Korea (approval ID: 125).
# The novel peptide according to the present disclosure was dissolved in bi-deionized distilled water, and administered while being finally included in physiological saline. The novel peptide according to the present disclosure was intraperitoneal injection (IP) administered to APP/PS1 and wild-type (WT) mice in a dose of 5 mg/kg/day at an interval of 2.5 days for 30 days to 45 days. Wild-type mice and APP/PS1 transfected mice were treated with the same volume of physiological saline, and after behavioral analysis, the animal models were sacrificed for further biochemical and immunohistochemical analysis.
# Protein concentrations were measured by using a BIORAD protein assay kit (BIORAD LABORATORIES, CA, USA). Equal amounts of protein (15 to 25 μg) were electrophoresed under the same experimental conditions using 4 to 12% BLOT™ minigel and MES SDS electrophoresis buffer (running buffer) 1×(NOVEX, LIFE TECHNOLOGIES, Kiryat Shmona, Israel), and a broad range prestained protein marker (GANGNAM STAIN™, Intron Biotechnology) was used as the control for the molecular size. To reduce nonspecific binding, the membranes used were blocked with 5% (w/v) skim milk and reacted with a primary antibody (a 1:1000 dilution) overnight at 4° C. After an appropriate reaction with a horseradish peroxidase (HRP)-binding secondary antibody, proteins were detected by using an ECL detection reagent (AMERSHAM PHARMECIA BIOTECH, Uppsala, Sweden) according to the manufacturer's instructions. The X-ray film was scanned and the optical density of the band was analyzed using a densitometry using a computer-based Sigma Gel program, version 1.0 (SPSS, Chicago, Ill., USA).
# For use as the primary antibody, anti-amyloid β (Aβ), anti-APP, anti-AdipoR1 (Adiponectin receptor 1), anti-phospho-AMPK, anti-SNAP-25 (Synaptosomal-Associated Protein 25), anti-SAP-102, anti-Syanpatophysin, phospho-Tau (Ser 413), anti-p-mTOR, anti-p-ULK1, and anti-β-actin were used.
# [1] = hippocampus of APP/PS1 mice, 9 months and 12 months
# [2] = hippocampus, 9 months and 12 months
# [3] = hippocampus, 9 months and 12 months after treatment
substance,measurement,setting,value
RGPCG (adiponectin receptor-activating peptide) [5AA1],level of EPSC enhancement (LTP),APP/PS1 model group,almost the same as that of the normal group
same,expression of p-ULK1 protein,APP/PS1 model mice; APP/PS1 mice,suppression of the expression
same,expression of p-mTOR protein,APP/PS1 model mice; APP/PS1 mice,suppression of the expression
same,APP in the cortex,APP/PS1 model mice; cortex of APP/PS1 mice,statistically significantly reduced
same,amyloid-β oligomer (Aβ oligomer) in the cortex,APP/PS1 model mice; cortex of APP/PS1 mice,statistically significantly reduced
same,expression level of p-Tau (Ser404),APP/PS1 model mice; hippocampus of APP/PS1 mice,remarkably decreased levels
same,expression level of p-Tau (Ser413),APP/PS1 model mice; hippocampus of APP/PS1 mice,remarkably decreased levels
same,expression level of AdipoR1,APP/PS1 model mice; [1],remarkably increased levels
same,expression level of SIRT-1,APP/PS1 model mice; [1],remarkably increased levels
same,expression level of pAMPK,APP/PS1 model mice; [1],remarkably increased levels
same,expression level of AAP in the hippocampus,APP/PS1 model mice; [2],decreased
same,expression level of Aβ in the hippocampus,APP/PS1 model mice; [2],decreased
same,expression level of SAP-102,APP/PS1 model mice; [3],remarkably increased levels
same,expression level of SNAP-25,APP/PS1 model mice; [3],remarkably increased levels
same,expression level of Synaptophysin,APP/PS1 model mice; [3],remarkably increased levels
